Measured values: ChEMBL document CHEMBL5154747, “Discovery of new carbonic anhydrase IX inhibitors as anticancer agents by toning the hydrophobic and hydrophilic rims of the active site to encounter the dual-tail approach” (Eur J Med Chem, 2022)

Key:
Format in all cases: functional
UACC-62 = test: Anticancer activity against human UACC-62 cells assessed as cell growth inhibition incubated for 48 hrs by SRB assay
UACC-257 = test: Anticancer activity against human UACC-257 cells assessed as cell growth inhibition incubated for 48 hrs by SRB assay
PC-3 = test: Anticancer activity against human PC-3 cells assessed as cell growth inhibition incubated for 48 hrs by SRB assay
HCC 2998 = test: Anticancer activity against human HCC 2998 cells assessed as cell growth inhibition incubated for 48 hrs by SRB assay
A549 = test: Anticancer activity against human A549 cells assessed as cell growth inhibition incubated for 48 hrs by SRB assay
NCI-H23 = test: Anticancer activity against human NCI-H23 cells assessed as cell growth inhibition incubated for 48 hrs by SRB assay
RPMI-8226 = test: Anticancer activity against human RPMI-8226 cells assessed as cell growth inhibition incubated for 48 hrs by SRB assay
HCT-116 = test: Anticancer activity against human HCT-116 cells assessed as cell growth inhibition incubated for 48 hrs by SRB assay
SW-620 = test: Anticancer activity against human SW-620 cells assessed as cell growth inhibition incubated for 48 hrs by SRB assay
BT-549 = test: Anticancer activity against human BT-549 cells assessed as cell growth inhibition incubated for 48 hrs by SRB assay
SF-539 = test: Anticancer activity against human SF-539 cells assessed as cell growth inhibition incubated for 48 hrs by SRB assay
NCI-H460 = test: Anticancer activity against human NCI-H460 cells assessed as cell growth inhibition incubated for 48 hrs by SRB assay
NCI-H226 = test: Anticancer activity against human NCI-H226 cells assessed as cell growth inhibition incubated for 48 hrs by SRB assay
OVCAR-5 = test: Anticancer activity against human OVCAR-5 cells assessed as cell growth inhibition incubated for 48 hrs by SRB assay
IGROV-1 = test: Anticancer activity against human IGROV-1 cells assessed as cell growth inhibition incubated for 48 hrs by SRB assay
OVCAR-8 = test: Anticancer activity against human OVCAR-8 cells assessed as cell growth inhibition incubated for 48 hrs by SRB assay
A498 = test: Anticancer activity against human A498 cells assessed as cell growth inhibition incubated for 48 hrs by SRB assay
SK-MEL-28 = test: Anticancer activity against human SK-MEL-28 cells assessed as cell growth inhibition incubated for 48 hrs by SRB assay
Hs-578T = test: Anticancer activity against human Hs-578T cells assessed as cell growth inhibition incubated for 48 hrs by SRB assay
TK-10 = test: Anticancer activity against human TK-10 cells assessed as cell growth inhibition incubated for 48 hrs by SRB assay
SNB-75 = test: Anticancer activity against human SNB-75 cells assessed as cell growth inhibition incubated for 48 hrs by SRB assay
CCRF-CEM = test: Anticancer activity against human CCRF-CEM cells assessed as cell growth inhibition incubated for 48 hrs by SRB assay
COLO 205 = test: Anticancer activity against human COLO 205 cells assessed as cell growth inhibition incubated for 48 hrs by SRB assay
SN12C = test: Anticancer activity against human SN12C cells assessed as cell growth inhibition incubated for 48 hrs by SRB assay
MCF7 = test: Anticancer activity against human MCF7 cells assessed as cell growth inhibition incubated for 48 hrs by SRB assay
NCI-H322M = test: Anticancer activity against human NCI-H322M cells assessed as cell growth inhibition incubated for 48 hrs by SRB assay
MDA-MB-468 = test: Anticancer activity against human MDA-MB-468 cells assessed as cell growth inhibition incubated for 48 hrs by SRB assay
RXF 393 = test: Anticancer activity against human RXF 393 cells assessed as cell growth inhibition incubated for 48 hrs by SRB assay
SNB-19 = test: Anticancer activity against human SNB-19 cells assessed as cell growth inhibition incubated for 48 hrs by SRB assay
UO-31 = test: Anticancer activity against human UO-31 cells assessed as cell growth inhibition incubated for 48 hrs by SRB assay
HL-60(TB) = test: Anticancer activity against human HL-60(TB) cells assessed as cell growth inhibition incubated for 48 hrs by SRB assay
MOLT-4 = test: Anticancer activity against human MOLT-4 cells assessed as cell growth inhibition incubated for 48 hrs by SRB assay
SK-MEL-2 = test: Anticancer activity against human SK-MEL-2 cells assessed as cell growth inhibition incubated for 48 hrs by SRB assay
CAKI-1 = test: Anticancer activity against human CAKI-1 cells assessed as cell growth inhibition incubated for 48 hrs by SRB assay
M14 = test: Anticancer activity against human M14 cells assessed as cell growth inhibition incubated for 48 hrs by SRB assay
HOP-62 = test: Anticancer activity against human HOP-62 cells assessed as cell growth inhibition incubated for 48 hrs by SRB assay
U-251 = test: Anticancer activity against human U-251 cells assessed as cell growth inhibition incubated for 48 hrs by SRB assay
HOP-92 = test: Anticancer activity against human HOP-92 cells assessed as cell growth inhibition incubated for 48 hrs by SRB assay
HT-29 = test: Anticancer activity against human HT-29 cells assessed as cell growth inhibition incubated for 48 hrs by SRB assay
[1] = read-out: LC50 (the source's name)

Compound: Cc1nn(-c2ccccc2)cc1/C=N/Nc1nc(Nc2ccccc2)nc(Nc2ccc(S(N)(=O)=O)cc2)n1
- GI50 (UACC-62): 1780 nM
- LC50 (UACC-62): 7190 nM
- GI50 (UACC-257): 2500 nM
- LC50 (UACC-257): > 100000 nM
- GI50 (PC-3): 2220 nM
- CC50 (PC-3; [1]): > 100000 nM
- GI50 (HCC 2998): 1880 nM
- CC50 (HCC 2998; [1]): 7010 nM
- GI50 (A549): 1850 nM
- GI50 (NCI-H23): 1740 nM
- CC50 (NCI-H23; [1]): 7500 nM
- GI50 (RPMI-8226): 1660 nM
- LC50 (concentration killing 50% of cells) (RPMI-8226): > 100000 nM
- GI50 (HCT-116): 2000 nM
- LC50 (concentration killing 50% of cells) (HCT-116): > 100000 nM
- GI50 (SW-620): 3380 nM
- CC50 (SW-620; [1]): > 100000 nM
- GI50 (BT-549): 1840 nM
- CC50 (BT-549; [1]): > 100000 nM
- GI50 (SF-539): 1710 nM
- CC50 (SF-539; [1]): 6250 nM
- GI50 (NCI-H460): 2770 nM
- CC50 (NCI-H460; [1]): > 100000 nM
- GI50 (NCI-H226): 1850 nM
- CC50 (NCI-H226; [1]): > 100000 nM
- GI50 (OVCAR-5): 2060 nM
- CC50 (OVCAR-5; [1]): > 100000 nM
- GI50 (IGROV-1): 2590 nM
- CC50 (IGROV-1; [1]): > 100000 nM
- GI50 (OVCAR-8): 2050 nM
- LC50 (OVCAR-8): > 100000 nM
- GI50 (A498): 1710 nM
- CC50 (A498; [1]): 6710 nM
- GI50 (SK-MEL-28): 1800 nM
- CC50 (SK-MEL-28; [1]): 6640 nM
- GI50 (Hs-578T): 2770 nM
- LC50 (concentration killing 50% of cells) (Hs-578T): > 100000 nM
- GI50 (TK-10): 1480 nM
- CC50 (TK-10; [1]): 8250 nM
- GI50 (SNB-75): 2690 nM
- LC50 (concentration killing 50% of cells) (SNB-75): > 100000 nM
- GI50 (CCRF-CEM): 2090 nM
- CC50 (CCRF-CEM; [1]): > 100000 nM
- GI50 (COLO 205): 2470 nM
- CC50 (COLO 205; [1]): > 100000 nM
- GI50 (SN12C): 2940 nM
- LC50 (SN12C): > 100000 nM
- GI50 (MCF7): 1550 nM
- LC50 (MCF7): 7590 nM
- GI50 (NCI-H322M): 2440 nM
- CC50 (NCI-H322M; [1]): > 100000 nM
- GI50 (MDA-MB-468): 1520 nM
- CC50 (MDA-MB-468; [1]): 7030 nM
- GI50 (RXF 393): 1770 nM
- CC50 (RXF 393; [1]): 6500 nM
- GI50 (SNB-19): 3440 nM
- CC50 (SNB-19; [1]): > 100000 nM
- GI50 (UO-31): 1720 nM
- CC50 (UO-31; [1]): 7270 nM
- GI50 (HL-60(TB)): 2240 nM
- CC50 (HL-60(TB); [1]): > 100000 nM
- GI50 (MOLT-4): 2290 nM
- CC50 (MOLT-4; [1]): > 100000 nM
- GI50 (SK-MEL-2): 1690 nM
- GI50 (CAKI-1): 2010 nM
- GI50 (M14): 2060 nM
- GI50 (HOP-62): 2830 nM
- CC50 (HOP-62; [1]): > 100000 nM
- GI50 (U-251): 3650 nM
- CC50 (U-251; [1]): > 100000 nM
- GI50 (HOP-92): 2440 nM
- CC50 (HOP-92; [1]): > 100000 nM
- GI50 (HT-29): 2880 nM
- CC50 (HT-29; [1]): > 100000 nM
